Values after ≈ are worked out from the molar mass of the structure shown.

Holding throughout (type): cell-based
For test [1], the system named is ESBL positive E. coli strains. The experiment in a line: Residual efficacy of antibiotic solution after overnight culture, re-tested by MDT. The note with it: Escherichia coli. Here is the method:
At each time point, the culture media were filtered to remove the cells and then added to different DST sets to measure the residual efficacies of the antibiotics. Both broth […] and DAC protocol were performed in the same manner as described above.
The present inventors hypothesized that the reason why the absence of inoculum effect in the DAC system may be because proteins released from bacteria are trapped by agarose and cannot degrade the antibiotic, unlike under broth culture conditions. […] These concentrations indicate the concentrations of the bacteria in […] for the DAC system and in liquid for the MDT system.
Thus, the final concentrations of the bacteria in the DAC and […] systems were the same. Cefepime was used in these tests. After culture overnight, the antibiotic solutions in the wells of the DAC and MDT systems was extracted and filtered to obtain the pure antibiotic. MDT using ESBL positive E. coli strains was conducted using the antibiotic.

Test [2] has as its system ESBL negative E. coli (ATCC 35218). In words: AST on the DAC system at various inoculum concentrations. As to conditions: unit inferred. An excerpt: (§1) The first reason is that large inoculum amounts of antibiotic degrading proteins derived from bacteria may destroy antibiotics and result in an increase in MIC value. The other reason is that larger inoculum amounts of […] bacteria may decrease the number of antibiotic molecules relative to single cells of bacteria and result in an increase in MIC. To verify the reasons for the absence of inoculum effect in the DAC system, ESBL negative E. coli (ATCC 35218), ESBL positive E. coli (ATCC 25922), and clinically obtained E. coli strains, which are well known as a bacterial strain secreting antibiotic-degrading proteins, were tested at inoculum concentrations of 5×10^7, 5×10^6, and 5×10^5 CFU/ml. These concentrations indicate the concentrations of the bacteria in agarose for the DAC system and in liquid for the MDT system.

The test system of test [3] is ESBL positive E. coli (ATCC 25922). The description is as above. The note with it: unit inferred.
From the text: as §1

In test [4] the test system is clinically obtained E. coli strain #5. Described as above. As to conditions: #5 strain, unit inferred.
From the text: as §1

In test [5] the test system is ESBL negative E. coli (ATCC 35218). The experiment in a line: AST on the MDT system (broth microdilution) at various inoculum concentrations. Here is the method:
(§2) The MIC of cefepime against E. coli was determined according to the standard CLSI guideline except for the concentration of bacteria. 16 h after culture at 37° C., broth microdilution wells were examined.
as §1

The subject of test [6] is ESBL positive E. coli (ATCC 25922). The test is described as above. Here is the method: as §2, §1
Test [7] deals with clinically obtained E. coli strain #5. Described as above. As to conditions: #5 strain. Here is the method:
as §2, §1

Setting [8] is: inoculum 5*10^5 CFU/ml in agarose.
[9] abbreviates: inoculum 5*10^6 CFU/ml in agarose.
[10] abbreviates: inoculum 5*10^7 CFU/ml in agarose.
Setting [11] is: inoculum 5*10^5 CFU/ml in liquid, unit not given.
[12] abbreviates: inoculum 5*10^6 CFU/ml in liquid, unit inferred.
The mark [13] stands for this setting: inoculum 5*10^7 CFU/ml in liquid, unit inferred.

`CO/N=C(\C(=O)N[C@@H]1C(=O)N2C(C(=O)[O-])=C(C[N+]3(C)CCCC3)CS[C@H]12)c1csc(N)n1` [Cefepime]: the MIC in test [1] (antibiotic solution recovered from DAC wells after overnight culture with 5*10^5 CFU/ml ESBL positive E. coli) is 0.06 µg/mL (≈ 0.125 µM); in test [1] (antibiotic solution recovered from DAC wells after overnight culture with 5*10^6 CFU/ml ESBL positive E. coli) it was 0.06 µg/mL (≈ 0.125 µM); in test [1] (antibiotic solution recovered from DAC wells after overnight culture with 5*10^7 CFU/ml ESBL positive E. coli), 0.06 µg/mL (≈ 0.125 µM); in test [1] (antibiotic solution recovered from MDT wells after overnight culture with 5*10^5 CFU/ml ESBL positive E. coli), 0.03 µg/mL (≈ 0.0624 µM); in test [1] (antibiotic solution recovered from MDT wells after overnight culture with 5*10^6 CFU/ml ESBL positive E. coli), 0.125 µg/mL (≈ 0.26 µM); in test [1] (antibiotic solution recovered from MDT wells after overnight culture with 5*10^7 CFU/ml ESBL positive E. coli) it was 0.25 µg/mL (≈ 0.52 µM). Also, the MIC (AST result, DAC) in test [2] (setting [8]) was determined as 0.06 µg/mL (≈ 0.125 µM); in test [2] (setting [9]) it was 0.06 µg/mL (≈ 0.125 µM); in test [2] (setting [10]), 0.06 µg/mL (≈ 0.125 µM); in test [3] (setting [8]), 0.03 µg/mL (≈ 0.0624 µM); in test [3] (setting [9]), 0.03 µg/mL (≈ 0.0624 µM); in test [3] (setting [10]), 0.03 µg/mL (≈ 0.0624 µM). In addition, the MIC (AST result, DAC) in test [4] (setting [8]), in test [4] (setting [9]) and in test [4] (setting [10]) was below 16 µg/mL each time. In addition, the “MIC (AST result, MDT)” value in test [5] (setting [11]) was “All growth”; in test [5] (setting [12]), 0.03 µg/mL (≈ 0.0624 µM); in test [5] (setting [13]), 0.03 µg/mL (≈ 0.0624 µM); in test [6] (setting [11]), “All growth”; in test [6] (setting [12]), 4 µg/mL (≈ 8.32 µM); in test [6] (setting [13]), 0.03 µg/mL (≈ 0.0624 µM). In addition, the “MIC (AST result, MDT)” value was “All growth” in test [7] (setting [11]), 64 µg/mL (≈ 133 µM) in test [7] (setting [12]) and 16 µg/mL (≈ 33.3 µM) in test [7] (setting [13]).

The values above are taken from patent US10533207B2, “Bioactivity testing structure for single cell tracking using gelling agents” (QuantaMatrix Inc., priority 2014, dated 2020).
